Laboratory results taken from ChEMBL document CHEMBL1201862, “PubChem BioAssay data set” (2004).
Active and inactive are the calls of the source.

How the values were obtained:
[1] = target: T1, Alkaline phosphatase, tissue-nonspecific isozyme (Homo sapiens, UniProt P05186)
T1 sequence (P05186 whole entry): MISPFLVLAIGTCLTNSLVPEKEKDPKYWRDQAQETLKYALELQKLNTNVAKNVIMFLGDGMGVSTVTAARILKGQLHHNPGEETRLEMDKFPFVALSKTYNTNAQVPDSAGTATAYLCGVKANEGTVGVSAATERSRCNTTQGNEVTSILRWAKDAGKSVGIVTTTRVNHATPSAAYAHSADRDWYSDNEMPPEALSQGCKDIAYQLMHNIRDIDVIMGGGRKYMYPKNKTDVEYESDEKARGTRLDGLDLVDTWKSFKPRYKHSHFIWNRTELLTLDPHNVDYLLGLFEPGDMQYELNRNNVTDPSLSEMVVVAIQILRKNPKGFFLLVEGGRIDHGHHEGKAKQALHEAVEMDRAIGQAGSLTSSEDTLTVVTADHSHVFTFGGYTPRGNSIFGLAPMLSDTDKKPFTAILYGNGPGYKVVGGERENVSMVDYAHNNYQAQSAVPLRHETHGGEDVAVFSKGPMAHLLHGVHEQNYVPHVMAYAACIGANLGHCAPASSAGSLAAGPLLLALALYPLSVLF

[2] = test system: Staphylococcus aureus; test: Inhibitors of Bacterial Quorum Sensing Structure Activity Relationship (SAR) Analysis: Dose Response Assay. [Related pubchem assays: 700, 527 ]; type: functional, organism-based
[3] = target: T2, Neuropeptide Y receptor type 2 (Homo sapiens, UniProt P49146); test: Fluorescence counterscreen for potentiators or agonists of NPY-Y1: Cell-based high-throughput dose response assay for potentiators or agonists of NPY-Y2.; type: functional
T2 sequence (P49146 whole entry): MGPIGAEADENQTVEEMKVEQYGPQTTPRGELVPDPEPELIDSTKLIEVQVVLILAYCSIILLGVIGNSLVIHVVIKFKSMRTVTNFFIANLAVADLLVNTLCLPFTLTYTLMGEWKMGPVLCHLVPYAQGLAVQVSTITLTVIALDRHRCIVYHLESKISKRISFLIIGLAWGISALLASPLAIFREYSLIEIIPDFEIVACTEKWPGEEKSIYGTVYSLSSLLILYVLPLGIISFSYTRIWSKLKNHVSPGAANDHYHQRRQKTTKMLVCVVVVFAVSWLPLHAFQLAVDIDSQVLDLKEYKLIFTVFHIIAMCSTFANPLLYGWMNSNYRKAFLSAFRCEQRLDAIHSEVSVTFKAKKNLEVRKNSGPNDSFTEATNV

[4] = target: T2, Neuropeptide Y receptor type 2; test: Fluorescence-based counterscreen for agonists of NPY-Y1: cell-based high-throughput dose response assay for agonists of NPY-Y2.; type: functional
[5] = test system: HEK293; test: Fluorescence-based counterscreen for potentiators or agonists of NPY-Y1: cell-based high-throughput dose response assay for inhibitors of cyclic nucleotide gated ion channel (CNGC) activity. In this assay, the parental HEK293 cell line transfected with a cyclic-nucleotide gated ion channel (CNGC)-based cAMP sensor is used to measure inhibition of isoproterenol-induced CNGC …; type: functional; settings: Homo sapiens
[6] = target: T3, Neuropeptide Y receptor type 1 (Homo sapiens, UniProt P25929); test: Fluorescence-based dose response cell-based high-throughput screening assay for potentiators or agonists of NPY-Y1.; type: functional
T3 sequence (P25929 whole entry): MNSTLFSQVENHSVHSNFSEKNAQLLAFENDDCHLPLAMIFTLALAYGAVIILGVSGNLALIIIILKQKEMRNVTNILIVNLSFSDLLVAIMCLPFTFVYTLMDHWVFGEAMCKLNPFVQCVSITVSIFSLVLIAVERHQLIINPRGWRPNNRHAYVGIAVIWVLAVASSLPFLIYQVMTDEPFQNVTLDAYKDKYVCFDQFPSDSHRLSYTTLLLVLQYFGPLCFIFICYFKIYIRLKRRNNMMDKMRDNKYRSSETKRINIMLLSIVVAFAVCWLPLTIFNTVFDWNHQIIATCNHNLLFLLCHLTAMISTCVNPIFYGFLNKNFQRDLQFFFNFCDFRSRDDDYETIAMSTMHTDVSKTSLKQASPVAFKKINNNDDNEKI

[7] = target: T3, Neuropeptide Y receptor type 1; test: Fluorescence-based dose response cell-based high-throughput screening assay for agonists of NPY-Y1. [Related pubchem assays: 1697 (Screening assay (NPY-Y1 agonists).), 1359 (Screening assay (NPY-Y2 potentiators or agonists).), 1304 (Screening assay (NPY-Y1 potentiators or agonists).), 1704 (Screening assay (CNGC inhibitors).), 1791 (Summary AID.)]; type: functional
[8] = target: T4, Rac GTPase-activating protein 1 (Homo sapiens, UniProt Q9H0H5); test: MgcRacGAP GTPase-activating activity inhibitors, confirmation, biochemical, ADP Hunter fluorescence, primary and confirmatory (AID 624330); type: functional
T4 sequence (Q9H0H5 whole entry): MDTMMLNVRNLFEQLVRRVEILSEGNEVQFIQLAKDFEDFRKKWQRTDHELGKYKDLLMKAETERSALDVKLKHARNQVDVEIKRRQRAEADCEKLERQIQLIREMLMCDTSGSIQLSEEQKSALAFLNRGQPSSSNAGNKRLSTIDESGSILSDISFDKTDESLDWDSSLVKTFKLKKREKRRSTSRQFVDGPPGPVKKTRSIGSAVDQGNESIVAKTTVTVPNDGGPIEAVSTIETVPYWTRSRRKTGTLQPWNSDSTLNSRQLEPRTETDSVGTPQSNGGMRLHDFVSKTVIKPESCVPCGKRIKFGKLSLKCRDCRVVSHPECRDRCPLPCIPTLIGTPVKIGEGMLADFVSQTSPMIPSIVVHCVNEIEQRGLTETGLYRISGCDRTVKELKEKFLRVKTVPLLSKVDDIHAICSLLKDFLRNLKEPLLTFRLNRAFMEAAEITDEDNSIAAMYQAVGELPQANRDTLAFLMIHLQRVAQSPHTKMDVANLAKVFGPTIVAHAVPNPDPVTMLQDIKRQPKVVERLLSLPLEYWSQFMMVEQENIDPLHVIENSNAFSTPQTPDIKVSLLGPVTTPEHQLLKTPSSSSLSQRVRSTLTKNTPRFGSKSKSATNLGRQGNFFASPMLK

Q: For `O=C1CC(N2CCN(c3cccc(C(F)(F)F)c3)CC2)C(=O)N1c1ccc(F)cc1` (stereo not drawn), which EC50 [1] is on record?
A: > 100 µM (not active)

Q: With `CC1CCN(C(C(=O)Nc2ccc(C(C)C)cc2)c2ccc3c(c2)OCO3)CC1` (stereo not drawn) as the molecule, how does the IC50 [2] read?
A: 0.717 µM (active)

Q: What does the source list for `CCOC(=O)C(Cc1ccccc1)C(=O)Nc1ccc(N(CC)CC)cc1` (stereo not drawn)?
A: EC50 [3]: 23.9 µM (not active); EC50 [4]: 12.4 µM (not active); IC50 [5]: 18.4 µM (not active); EC50 [6]: 5.4 µM (active); EC50 [7]: 7.05 µM (active); IC50 [8]: 93.1 µM (active)
